Assay results as given in patent US20130142879A1, “SUSPENSION FORMULATIONS” (INNOVATA BIOMED LIMITED, priority 2008, published 2013).

Key:
[1] = Solubility of drugs within HFA 227 with ethanol addition
[2] = Solubility of drugs within HFA 134a with ethanol addition
[3] = Solubility of suspension stabilisers in HFA 134a or HFA 227 with ethanol and additives; assay type: physicochemical
Experimental: Trehalose has been determined to be insoluble (observed to be <0.12 μg/50 μl) in HFA 134a or HFA 227 with up to 12% w/w ethanol and only slightly soluble in 30% w/w ethanol (3.3 μg/[…] in HFA 134a, 2.7 μg/50 μl in HFA 227).
Leucine has been determined to be insoluble (observed to be <0.08 μg/50 μl) in HFA 134a or HFA 227 with up to 30% w/w ethanol.

| Solubility within HFA 227 ([1]; EtOH addition 0 % w/w) [μg per 50 μl] | Solubility within HFA 227 ([1]; EtOH addition 1 % w/w) [μg per 50 μl] | Solubility within HFA 227 ([1]; EtOH addition 5 % w/w) [μg per 50 μl] | SMILES | Solubility within HFA 134a ([2]; EtOH addition 0 % w/w) [μg per 50 μl] | Solubility within HFA 134a ([2]; EtOH addition 1 % w/w) [μg per 50 μl] | Solubility within HFA 134a ([2]; EtOH addition 5 % w/w) [μg per 50 μl] | further results |
| --- | --- | --- | --- | --- | --- | --- | --- |
| 0.00 | 0.00 | 0.07 | C[N+]1(C)[C@@H]2C[C@@H](OC(=O)C(O)(c3cccs3)c3cccs3)C[C@H]1[C@@H]1O[C@@H]12 [Tiotropium Bromide] | 0.00 | 0.01 | 0.33 |  |
| 0.22 | 0.83 | 4.78 | CCC(=O)O[C@]1(C(=O)SCF)[C@H](C)C[C@H]2[C@@H]3C[C@H](F)C4=CC(=O)C=C[C@]4(C)[C@@]3(F)[C@@H](O)C[C@@]21C [Fluticasone Propionate] |  |  |  | Solubility within HFA 227 ([1]; EtOH addition 0.2 % w/w): 0.23 μg per 50 μl |

The remaining lines, values behind:

| SMILES | Solubility within HFA 227 ([1]; EtOH addition 0 % w/w) [μg per 50 μl] | Solubility within HFA 227 ([1]; EtOH addition 1 % w/w) [μg per 50 μl] | Solubility within HFA 227 ([1]; EtOH addition 5 % w/w) [μg per 50 μl] | Solubility within HFA 134a ([2]; EtOH addition 0 % w/w) [μg per 50 μl] | Solubility within HFA 134a ([2]; EtOH addition 1 % w/w) [μg per 50 μl] | Solubility within HFA 134a ([2]; EtOH addition 5 % w/w) [μg per 50 μl] | further results |
| --- | --- | --- | --- | --- | --- | --- | --- |
| CCCC1O[C@@H]2C[C@H]3[C@@H]4CCC5=CC(=O)C=C[C@]5(C)[C@H]4[C@@H](O)C[C@]3(C)[C@]2(C(=O)CO)O1 (some centres unmarked) [Budesonide] | 1.66 | 5.61 | 45.16 |  |  |  |  |
| COc1ccc(CC(C)NCC(O)c2ccc(O)c(NC=O)c2)cc1 (centres unmarked) [Formoterol] | 0.00 | 0.02 | 0.23 | 0.00 | 0.03 | 0.73 |  |
| OC[C@H]1O[C@H](O[C@H]2O[C@H](CO)[C@@H](O)[C@H](O)[C@H]2O)[C@H](O)[C@@H](O)[C@@H]1O [Trehalose] |  |  |  |  |  |  | Solubility ([1]; 30% w/w ethanol in HFA 227): 2.7 μg/50 μl |
| CC(C)C[C@H](N)C(=O)O [Leucine] |  |  |  |  |  |  | Solubility ([3]; 3% w/w ethanol with 0.5% w/w propylene glycol or 0.01% w/w oleic acid, HFA 134a or HFA 227): < 0.08 μg/50 μl; Solubility ([3]; 12% w/w ethanol with 1.2% w/w water, HFA 134a or HFA 227): < 0.08 μg/50 μl; Solubility ([3]; HFA 134a or HFA 227 with up to 30% w/w ethanol): < 0.08 μg/50 μl |
